Source: patent US20240309043A1, “THERAPEUTICALLY ACTIVE STEROIDAL DERIVATIVES” (Organon R&D Finland Ltd., priority 2017, published 2024)

What was measured:
Assay type in all cases: biochemical
[1] = system: HSD1 enzyme that is expressed in rabbit placenta tissue; experiment: Inhibition of E1 to E2 conversion in rabbit placenta tissue homogenate; conditions: inhibitor 100 nM, 30 nM estrone, 30 min
Procedure: The assay is based on an enzymatic reaction where HSD1 enzyme that is expressed in rabbit placenta tissue converts its natural substance estrone (E1) to estradiol (E2) in the presence of a co-factor β-NADPH.
Homogenization of rabbit placenta tissue: Weight a piece of the frozen tissue into a Precellys ck28 bead tube. Add buffer solution (20 mM KH2PO4 with 1 mM EDTA, pH 7,4) in 1:2 ratio (e.g. 300 mg of tissue:600 μl reaction buffer solution). Insert the bead tubes to homogenizer and homogenize 2×30 s. 6000 rpm. Centrifugated 5 min., 2600 rpm at +4° C. and collect supernatant. Aliquots of homogenate are stored in −80° C.
Assay—Inhibition of E1 to E2 conversion in rabbit placenta tissue: The reaction takes place in a buffer solution (20 mM KH2PO4 with 1 mM EDTA, pH 7,4), including appropriate amount of rabbit placenta homogenate, co-factor (1 mM β-NADPH), Substrate (30 nM estrone), labelled substrate as tracer (5 nM [^3H]-estrone). During a 30-minute incubation part of the estrone is converted to estradiol. The reaction is stopped by lowering the pH to 1 with 10% trichloro acetic acid (TCA). The substrate and conversion products are analyzed by HPLC and a Scintillation counter analyzer. Total radioactivity for estrone and estradiol were determined in each sample and percent conversion of estrone to estradiol was calculated according to the following formula:
Percent inhibition was calculated flowingly: % inhibition=100−% conversion.

[2] = biological target: T1, recombinant human 17β-HSD2 (Homo sapiens, UniProt P37059); experiment: Inhibition of recombinant human 17β-HSD2; conditions: inhibitor 1 μM; 50 nM estradiol, 1 mM NADH, 30 min RT
T1 construct: made in house; host or cells: Sd9 (Sf9) insect cells, baculovirus (Bac to Bac Expression System)
T1 sequence (P37059 1-387): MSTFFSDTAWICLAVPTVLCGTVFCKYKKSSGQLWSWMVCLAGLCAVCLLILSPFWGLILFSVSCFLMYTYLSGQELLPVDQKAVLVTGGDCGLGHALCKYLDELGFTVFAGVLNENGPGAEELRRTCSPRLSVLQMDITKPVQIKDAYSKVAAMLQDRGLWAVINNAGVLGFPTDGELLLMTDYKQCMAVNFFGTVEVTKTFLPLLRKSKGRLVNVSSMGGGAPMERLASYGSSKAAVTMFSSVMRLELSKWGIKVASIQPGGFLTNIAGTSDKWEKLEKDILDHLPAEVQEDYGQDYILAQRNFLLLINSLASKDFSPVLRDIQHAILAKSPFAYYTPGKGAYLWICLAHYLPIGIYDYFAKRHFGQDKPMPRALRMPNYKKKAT
Procedure: 17β-HSD2 production and isolation: Similarly to 17β-HSD1 the Recombinant baculovirus was generated by the “Bac to Bac Expression System” (Invitrogen). Recombinant bacmid was transfected to Sd9 insect cells using “Cellfectin Reagent” (Invitrogen). 60 h later cells were harvested and supernatant were fractionated by the following protocol: • cells were dissolved into 40 ml of A-buffer (40 mM TRIS, pH 8.0, 20% glycerol, 20 μM NAD, 0.4 mM PMSF, 150 mM NaCl, 0.5% dodecyl-β-maltoside+protease inhibitor cocktail) • cells were sonicated • lysate was incubated on ice for 15 min • lysate was centrifuged 5000 rpm 15 min, +4° C. • centrifugation of the supernatant 180 000 g 30 min, +4° C. • pellet was dissolved into 8 ml of A-buffer • not resuspended material was removed by centrifugation 5000 rpm min, +4° C. • the clear supernatant was divided into 100 μl aliquots and were stored frozen until determination of enzymatic activity.
The amount of 17β-HSD2 was analysed by immunoblotting and total protein concentration of each extract batch was determined.
Assay—Inhibition of recombinant human 17β-HSD2: Recombinant protein (4 μg/ml) was incubated in 20 mM KH2PO4 pH 8.5 with 50 nM estradiol (including 800 000 cpm/ml of ^3H-estradiol) and 1 mM NADH for 30 min at RT, in the presence of the potential inhibitor at concentrations 1 μM or 0.1 μM. Inhibitor stock solutions were prepared in DMSO. Final concentration of DMSO was adjusted to 1% in all samples. The enzyme reaction was stopped by addition of 10% trichloroacetic acid (final concentration). Samples were centrifuged in a microtiter plate at 4000 rpm for 10 min. Supernatants were applied to reverse phase HPLC on a Waters Symmetry C18 column, equipped with a Waters Sentry Guard column. Isocratic HPLC runs were performed at RT at a flow rate of 1 ml/min in acetonitrile:water 48:52 as running solvent. Radioactivity was monitored in the eluate by a Scintillation Analyzer. Total radioactivity for estrone and estradiol were determined in each sample and percent conversion of estradiol to estrone was calculated according to the following formula:
(§1) [formula] Percent inhibition was calculated flowingly: % inhibition=100−% conversion

[3] = biological target: T2, recombinant human 17β-HSD1 (Homo sapiens, UniProt P14061); experiment: Inhibition of recombinant human 17β-HSD1; conditions: inhibitor 100 nM; 30 nM estrone, 1 mM NADPH, 30 min RT
T2 construct: made in house; host or cells: Sd9 (Sf9) insect cells, baculovirus (Bac to Bac Expression System)
T2 sequence (P14061 1-328): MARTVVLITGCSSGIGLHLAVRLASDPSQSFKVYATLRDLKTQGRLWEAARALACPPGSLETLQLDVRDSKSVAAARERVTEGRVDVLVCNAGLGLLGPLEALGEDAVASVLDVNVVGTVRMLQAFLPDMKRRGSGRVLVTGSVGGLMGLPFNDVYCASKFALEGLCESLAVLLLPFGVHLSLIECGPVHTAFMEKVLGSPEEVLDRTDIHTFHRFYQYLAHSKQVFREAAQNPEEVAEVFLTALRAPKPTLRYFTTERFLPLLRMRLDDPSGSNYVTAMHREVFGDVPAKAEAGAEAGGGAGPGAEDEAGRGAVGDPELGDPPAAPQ
Procedure: 17β-HSD1 production and isolation: Recombinant baculovirus was generated by the “Bac to Bac Expression System” (Invitrogen). Recombinant bacmid was transfected to Sd9 insect cells using “Cellfectin Reagent” (Invitrogen). 60 h later cells were harvested; the microsomal fraction was isolated as described by Puranen, T. J., Poutanen, M. H., Peltoketo, H. E., Vihko, P. T. and Vihko, R. K. (1994) Site-directed mutagenesis of the putative active site of human 17 β-hydroxysteroid dehydrogenase type 1. Biochem. J. 304: 289-293. Aliquots were stored frozen until determination of enzymatic activity.
Assay—Inhibition of recombinant human 17β-HSD1: Recombinant protein (1 μg/ml) was incubated in 20 mM KH2PO4 pH 7.4 with 30 nM estrone (including 800 000 cpm/ml of ^3H-estrone) and 1 mM NADPH for 30 min at RT, in the presence of the potential inhibitor at concentrations 1 μM or 0.1 μM. Inhibitor stock solutions were prepared in DMSO. Final concentration of DMSO was adjusted to 1% in all samples. The enzyme reaction was stopped by addition of 10% trichloroacetic acid (final concentration). Samples were centrifuged in a microtiter plate at 4000 rpm for 10 min. Supernatants were applied to reverse phase HPLC on a Waters Symmetry C18 column, equipped with a Waters Sentry Guard column. Isocratic HPLC runs were performed at RT at a flow rate of 1 ml/min in acetonitrile:water 48:52 as running solvent. Radioactivity was monitored in the eluate by a Scintillation Analyzer. Total radioactivity for estrone and estradiol were determined in each sample and percent conversion of estrone to estradiol was calculated according to the following formula:
as §1

Row | Compound | Rabbit placenta inhibition % @100 nM [1] | inhibition at 1 µM [2] | inhibition at 0.1 µM [3]
1 | COc1ccc(NC(=O)CC[C@@H]2C/C(=N\O)[C@@]3(C)CCC4c5ccc(F)cc5CCC4C23)nc1 (stereo partly drawn) [Compound 28, 3-((13S,15R,E)-3-fluoro-17-(hydroxyimino)-13-methyl-7,8,9,11,12,13,14,15,16,17-decahydro-6H-cyclopenta[a]phenanthren-15-yl)-N-(5-methoxypyridin-2-yl)propanamide] | 48% | 7% | 74%
2 | COc1ccc(NC(=O)CC[C@@H]2C/C(=N\O)[C@@]3(C)CCC4c5ccc(F)cc5CCC4C23)nn1 (stereo partly drawn) [Compound 30, 3-((13S,15R,E)-3-fluoro-17-(hydroxyimino)-13-methyl-7,8,9,11,12,13,14,15,16,17-decahydro-6H-cyclopenta[a]phenanthren-15-yl)-N-(6-methoxypyridazin-3-yl)propanamide] | 79% | 3% | 40%
3 | Cc1ccc(NC(=O)CC[C@@H]2C/C(=N\O)[C@@]3(C)CCC4c5ccc(F)cc5CCC4C23)nn1 (stereo partly drawn) [Compound 32, 3-((13S,15R,E)-3-fluoro-17-(hydroxyimino)-13-methyl-7,8,9,11,12,13,14,15,16,17-decahydro-6H-cyclopenta[a]phenanthren-15-yl)-N-(6-methylpyridazin-3-yl)propanamide] | 55% | 9% | 35%
4 | CN(C(=O)CC[C@@H]1C/C(=N\O)[C@@]2(C)CCC3c4ccc(F)cc4CCC3C12)C1COC1 (stereo partly drawn) [Compound 36, 3-((13S,15R,E)-3-fluoro-17-(hydroxyimino)-13-methyl-7,8,9,11,12,13,14,15,16,17-decahydro-6H-cyclopenta[a]phenanthren-15-yl)-N-methyl-N-(oxetan-3-yl)propanamide] | 12% | 10% | 33%
5 | CCN(CC)C(=O)CC[C@@H]1C/C(=N\O)[C@@]2(C)CCC3c4ccc(F)cc4CCC3C12 (stereo partly drawn) [Compound 40, N,N-diethyl-3-((13S,15R,E)-3-fluoro-17-(hydroxyimino)-13-methyl-7,8,9,11,12,13,14,15,16,17-decahydro-6H-cyclopenta[a]phenanthren-15-yl)propanamide] | 6% | 6% | 46%
6 | C[C@]12CCC3c4ccc(Cl)cc4CCC3C1[C@H](CCC(=O)Nc1cccnn1)C/C2=N\O (stereo partly drawn) [Compound 44, 3-((13S,15R,E)-3-chloro-17-(hydroxyimino)-13-methyl-7,8,9,11,12,13,14,15,16,17-decahydro-6H-cyclopenta[a]phenanthren-15-yl)-N-(pyridazine-3-yl)propanamide] | 11% | 2% | 20%
7 | C[C@]12CCC3c4ccc(Cl)cc4CCC3C1[C@H](CCC(=O)NC1=NCCS1)C/C2=N\O (stereo partly drawn) [Compound 46, 3-((13S,15R,E)-3-chloro-17-(hydroxyimino)-13-methyl-7,8,9,11,12,13,14,15,16,17-decahydro-6H-cyclopenta[a]phenanthren-15-yl)-N-(4,5-dihydrothiazol-2-yl)propanamide] | 50% | 0% | 55%
8 | C[C@]12CCC3c4ccc(Cl)cc4CCC3C1[C@H](CCC(=O)N1CCC3(CCOCC3)C1)C/C2=N\O (stereo partly drawn) [Compound 48, 3-((13S,15R,E)-3-chloro-17-(hydroxyimino)-13-methyl-7,8,9,11,12,13,14,15,16,17-decahydro-6H-cyclopenta[a]phenanthren-15-yl)-1-(8-oxa-2-azaspiro[4.5]decan-2-yl)propan-1-one] | 1% | -2% | 30%
9 | COc1ccc(NC(=O)CC[C@@H]2C/C(=N\O)[C@@]3(C)CCC4c5ccc(Cl)cc5CCC4C23)nn1 (stereo partly drawn) [Compound 50, 3-((13S,15R,E)-3-chloro-17-(hydroxyimino)-13-methyl-7,8,9,11,12,13,14,15,16,17-decahydro-6H-cyclopenta[a]phenanthren-15-yl)-N-(6-methoxypyridazin-3-yl)propanamide] | 42% | -2% | 37%
10 | CCN(CC)C(=O)CC[C@@H]1C/C(=N\O)[C@@]2(C)CCC3c4ccc(Cl)cc4CCC3C12 (stereo partly drawn) [Compound 52, 3-((13S,15R,E)-3-chloro-17-(hydroxyimino)-13-methyl-7,8,9,11,12,13,14,15,16,17-decahydro-6H-cyclopenta[a]phenanthren-15-yl)-N,N-diethylpropanamide] | 6% | 2% | 64%
11 | Cc1cc(NC(=O)CC[C@@H]2C/C(=N\O)[C@@]3(C)CCC4c5ccc(Cl)cc5CCC4C23)no1 (stereo partly drawn) [Compound 54, 3-((13S,15R,E)-3-chloro-17-(hydroxyimino)-13-methyl-7,8,9,11,12,13,14,15,16,17-decahydro-6H-cyclopenta[a]phenanthren-15-yl)-N-(5-methylisoxazol-3-yl)propanamide] | 10% | 0% | 47%
